According to ChEMBL document CHEMBL1155831, “The structural basis for peptidomimetic inhibition of eukaryotic ribonucleotide reductase: a conformationally flexible pharmacophore” (J Med Chem, 2008):
pIC50: −log10 of the molar value.

Assay: Inhibition of Saccharomyces cerevisiae ribonucleotide reductase

pIC50	Substance
4.52	H-NFDDDF-OH
4.36	H-FTFNEDF-OH
